Marks after values point to notes of the source that are not given here.
Assays:
[1] = test system: Salmonella typhimurium TA98; experiment: Ames MPF genotoxicity test, TA98; format: cell-based; conditions: for mutagenicity classification against TA98: in the presence and absence of metabolic activation (S9)
Procedure: (§1) An Ames MPF assay was performed to investigate the genotoxicity of the compounds 2a and 2b.
(§2) The genotoxicity of the compounds was determined by Ames assay as previously described using the Ames MPF 98/100 mutagenicity test sample kit (Xenometrix AG, Allschwil, Switzerland). This test was performed with Salmonella typhimurium strains TA98 (frameshift mutations) and TA100 (base-pair substitutions). Compounds was prepared in six different concentrations (5, 2.5, 1.25, 0.625, 0.3125, 0.156 mg/mL) which was between […] and 5000 µg/mL according to the previous guidelines in DMSO. In order to detect mutagenic potential, test performed with and without Aroclor™-1254 induced male Sprague-Dawley rat liver microsomal enzyme (S9) mix (Xenometrix AG). While the positive control for TA 98 without S9 mix was 2-nitrofluorene (2 μg/mL), 1 μg/mL of 2-aminoanthracene was positive control with S9 against TA 98. For TA100, 4-nitroquinoline N-oxide (0.1 μg/mL) was positive control without S9 mix and 2.5 μg/mL of 2-aminoanthracene was positive control. 4% DMSO solution was the solvent control. At the end of the experiment, revertant bacteria decreased the pH of solution and indicator medium colour was changed to yellow. Yellow wells were counted as positive and compared with the negative control. Fold induction over the negative control and fold induction over the baseline were calculated. Fold induction over the negative control is the ratio of the mean number of positive wells for the dose concentration divided by the mean number of positive wells for the zero dose (negative) control. Fold induction over the baseline is the ratio of the mean number of positive wells for the dose concentration divided by zero dose baseline. The zero dose baseline is obtained by adding one standard deviation to the mean number of positive wells of the zero dose control. Mutagenity was determined according to the criteria from previous studies. For a baseline value ≤ 3, significant increases between 2 and 3-fold the baseline were classified as weak mutagen, increases ≥ 3-fold the baseline were classified as mutagen. For a baseline was > 3, significant increases between 1.5 and 2.5-fold the baseline were classified as weak mutagen, and increases ≥ 2.5-fold the baseline, were classified as mutagen. In principle, for a mutagenic compound, at least two adjacent doses with significant increase or a significant increase at the highest dose level should be observed. All doses were compared according to Student’s t-test at p < 0.05 as statistically.

[2] = test system: Salmonella typhimurium TA100; experiment: Ames MPF genotoxicity test, TA100; format: cell-based; conditions: for mutagenicity classification against TA100: with/without metabolic activation (S9)
Procedure: as §1, §2

SMILES | Revertants Fold Increase (Over Baseline) ([1]; TA 98, S9+, 0.156 mg/mL) | Revertants Fold Increase (Over Baseline) ([1]; TA 98, S9+, 1.25 mg/mL) | Revertants Fold Increase (Over Baseline) ([1]; TA 98, S9+, 2.5 mg/mL) | Revertants Fold Increase (Over Baseline) ([1]; TA 98, S9+, 5 mg/mL) | Revertants Fold Increase (Over Baseline) ([1]; TA 98, S9−, 0.156 mg/mL) | Revertants Fold Increase (Over Baseline) ([1]; TA 98, S9−, 0.3125 mg/mL) | Revertants Fold Increase (Over Baseline) ([1]; TA 98, S9−, 0.625 mg/mL) | Revertants Fold Increase (Over Baseline) ([1]; TA 98, S9−, 1.25 mg/mL) | Revertants Fold Increase (Over Baseline) ([1]; TA 98, S9−, 2.5 mg/mL) | Revertants Fold Increase (Over Baseline) ([1]; TA 98, S9−, 5 mg/mL) | mutagenicity classification against TA98 [1] | Revertants Fold Increase (Over Baseline) ([2]; TA 100, S9+, 0.156 mg/mL) | Revertants Fold Increase (Over Baseline) ([2]; TA 100, S9+, 0.3125 mg/mL) | Revertants Fold Increase (Over Baseline) ([2]; TA 100, S9+, 0.625 mg/mL) | Revertants Fold Increase (Over Baseline) ([2]; TA 100, S9+, 1.25 mg/mL) | Revertants Fold Increase (Over Baseline) ([2]; TA 100, S9+, 2.5 mg/mL) | Revertants Fold Increase (Over Baseline) ([2]; TA 100, S9+, 5 mg/mL) | Revertants Fold Increase (Over Baseline) ([2]; TA 100, S9−, 0.156 mg/mL) | Revertants Fold Increase (Over Baseline) ([2]; TA 100, S9−, 0.3125 mg/mL) | Revertants Fold Increase (Over Baseline) ([2]; TA 100, S9−, 0.625 mg/mL) | further results
CN1CCN(c2ccc(C=NNc3ccccc3)cc2)CC1 [Compound 2b, 1-(4-(4-Methylpiperazine-1-yl)benzylidene)-2-phenylhydrazine] | 0.85 | 0.37 | 0.37 | 0.12 | 1.24 * | 0.36 | 0.22 | 0.00 | 0.00 | 0.00 | not classified as a mutagen | 1.46 * | 1.40 | 1.46 | 0.79 | 0.12 * | 0.00 * | 0.40 | 0.17 * | 0.06 * | Fold-inductions over baseline ([1]; TA98 without S9, all concentrations): ≤ 1.5; Revertants Fold Increase (Over Baseline) ([2]; TA 100, S9−, 1.25 mg/mL): 0.03 *; Revertants Fold Increase (Over Baseline) ([2]; TA 100, S9−, 2.5 mg/mL): 0.00 *; Revertants Fold Increase (Over Baseline) ([2]; TA 100, S9−, 5 mg/mL): 0.00 *; Fold-inductions over baseline ([2]; TA100 with S9, each concentration): ≤ 1.5; mutagenicity classification against TA100 [2]: non-mutagenic
CC1CCCCN1c1ccc(/C=N/Nc2ccccc2)cc1 (centres unmarked) [Compound 2a, 1-(4-(2-Methypiperidin-1-yl)benzylidene)-2-phenylhydrazine] | 0.92 | 0.75 | 0.75 | 1.17 | 0.42 | 0.08 * | 0.58 | 0.50 | 0.08 * | 0.17 * | non-mutagenic | 0.99 | 0.69 | 0.91 | 0.95 | 0.39 | 0.82 | 0.44 | 0.63 | 0.24 * | Revertants Fold Increase (Over Baseline) ([1]; TA 98, S9+, 0.3125 mg/mL): 0.83; Revertants Fold Increase (Over Baseline) ([1]; TA 98, S9+, 0.625 mg/mL): 0.58; Revertants Fold Increase (Over Baseline) ([2]; TA 100, S9−, 1.25 mg/mL): 0.19 *; Revertants Fold Increase (Over Baseline) ([2]; TA 100, S9−, 2.5 mg/mL): 0.05 *; Revertants Fold Increase (Over Baseline) ([2]; TA 100, S9−, 5 mg/mL): 0.00 *; Fold-inductions over baseline ([2]; TA100, absence and presence of S9, each concentration): less than 1.5; mutagenicity classification against TA100 [2]: not genotoxic

— PMC6152084, “Synthesis of New Hydrazone Derivatives for MAO Enzymes Inhibitory Activity” (Molecules : A Journal of Synthetic Chemistry and Natural …, 2017)
